Data as given in patent publication US20180099937A1, “NOVEL ARYL-CYANOGUANIDINE COMPOUNDS” (Bayer Pharma Aktiengesellschaft, priority 2015, published 2018).

Biological target: SMYD2 (Homo sapiens, UniProt Q9NRG4)
Assay: Scintillation Proximity Assay (SPA) for detection of SMYD2 enzymatic inhibition
Assay type: biochemical
Set-up: The SMYD2 full length enzyme was produced in-house by expression (with an N-terminal 6× His tag) in E. coli; 6xHis (N); made in house; host or cells: E. coli
Conditions: SMYD2 full length enzyme, p53 Peptide substrate 1.0 μM, 3H-SAM 60 nM; read-out: IC50 [mol/l] (SPA Assay)
Excerpt: 1.1 Scintillation Proximity Assay (SPA) for Detection of SMYD2 Enzymatic Inhibition
SMYD2 inhibitory activities of the compounds described in the present invention were quantified using a scintillation proximity assay (SPA) which measures methylation by the enzyme of the synthetic, biotinylated peptide Btn-Ahx-[…]—Amid×TFA (Biosyntan) derived from p53 and referred to from here on as “p53 Peptide”. The SMYD2 full length enzyme was produced in-house by expression (with an N-terminal 6× His tag) in E. coli and purification by affinity chromatography on a Ni-NTA Sepharose column followed by a size exclusion chromatography step on a Superdex 200 16/60 column (GE Healthcare).
In a typical assay 11 different concentrations of each compound (0.1 nM, 0.33 nM, 1.1 nM, 3.8 nM, 13 nM, 44 nM, 0.15 μM, 0.51 μM, 1.7 μM, 5.9 μM and 20 μM) were tested in duplicate within the same microtiter plate. To this end, 100-fold concentrated compound solutions (in DMSO) were previously prepared by serial dilution (1:3.4) of 2 mM stocks in a clear low volume 384-well source microliter plate (Greiner Bio-One), from which 50 nl of compound solutions were transferred into a white low volume test microtiter plate from the same supplier. Subsequently, 2.5 μl SMYD2 in aqueous assay buffer [50 mM Tris/HCl pH 9.0 (AppliChem), 1 mM dithiothreitol (DTT, Sigma), 0.01% (w/v) bovine serum albumine (BSA, Sigma), 0.0022% (v/v) Pluronic (Sigma)] were added to the compounds in the test plate to a final enzyme concentration of —typically—3 nM (this parameter was adjusted depending on the activity of the enzyme lot in order to be within the linear dynamic range of the assay). The samples were then incubated for 15 min at 22° C. to allow pre-equilibration of the putative enzyme-inhibitor complexes before the start of the methylation reaction, which was initiated by the addition of 2.5 μl 2-fold concentrated solution (in assay buffer) of titriated S-Adenosyl-L-Methionine (3H-SAM, Perkin Elmer, final concentration: 60 nM) and p53 Peptide substrate (final concentration: 1.0 μM). The resulting mixture (5 μl final volume) was shortly centrifuged (2 min., 1500 rpm) and incubated at 22° C. during 30 min. Thereupon the reaction was stopped by adding 3 μl of Streptavidin PS SPA imaging beads (Perkin Elmer, final concentration of 3.12 μg/μl) and “cold” SAM (AK Scientific, 25 μM final concentration) for non-specific binding reduction. Plates containing the stopped reaction were sealed with transparent adhesive foil (Perkin Elmer), centrifuged (2 min., 1500 rpm), and further incubated for —at least—1 h at RT (or overnight at 4° C.) in order to allow the SPA signals to develop. Subsequently, the amount of product was evaluated by measuring the energy transfer from the β-particles emitted by the 3H-labeled substrate to the Europium scintillator co-polymerized in the polystyrene matrix of the PS imaging beads, using the standard settings for this purpose of a Viewlux (Perkin-Elmer) CCD plate imaging device (emission filter 613/55 (IFP). The resulting scintillation counts were taken as indicator for the amount of methylated peptide per well. The data were normalised using two sets of control wells (typically 16 each) for high−(=enzyme reaction with DMSO instead of test compound=0% =Minimum inhibition) and low−(=all assay components without enzyme=100% =Maximum inhibition) SMYD2 activity. IC50 values were calculated by fitting the normalized inhibition data to a 4-parameter logistic equation using the “Screener” analysis software from Genedata.

Chain of SMYD2 (Q9NRG4 whole entry): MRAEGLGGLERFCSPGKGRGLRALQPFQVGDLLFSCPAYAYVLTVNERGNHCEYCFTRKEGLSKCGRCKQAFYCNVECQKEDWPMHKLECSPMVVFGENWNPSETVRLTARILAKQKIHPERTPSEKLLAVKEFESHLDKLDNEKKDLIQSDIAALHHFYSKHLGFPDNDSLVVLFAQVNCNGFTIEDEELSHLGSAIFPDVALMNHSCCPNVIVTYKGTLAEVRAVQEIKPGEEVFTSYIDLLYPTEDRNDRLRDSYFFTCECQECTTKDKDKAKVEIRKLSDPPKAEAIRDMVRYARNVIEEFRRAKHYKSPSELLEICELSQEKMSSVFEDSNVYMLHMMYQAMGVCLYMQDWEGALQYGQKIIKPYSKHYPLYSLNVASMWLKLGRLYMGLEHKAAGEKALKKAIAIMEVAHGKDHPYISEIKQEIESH

| SMILES | IC50 |
| --- | --- |
| CCN(C(=O)[C@H]1CCCN1)C1CN(/C(=N\C#N)Nc2cc(OC)ccc2C)N=C1c1ccc(Cl)c(Cl)c1 (mixture of isomers) [Example 34, N-{1-[N′-Cyano-N-(5-methoxy-2-methylphenyl)carbamimidoyl]-3-(3,4-dichlorophenyl)-4,5-dihydro-1H-pyrazol-4-yl}-N-ethyl-D-prolinamide] | 615 nM |
| CCN(C(=O)[C@H]1CCCN1)C1CN(/C(=N\C#N)Nc2cccc(OCC(F)(F)F)c2)N=C1c1ccc(Cl)c(Cl)c1 (mixture of isomers) [Example 35, N-[1-{N′-Cyano-N-[3-(2,2,2-trifluorelethoxy)phenyl]carbamimidayl}-3-(3,4-dichlorophenyl)-4,5-dihydro-1H-pyrazol-4-yl]-N-ethyl-D-prolinamide] | 505 nM |
| CCN(C(=O)[C@H]1CCCN1)C1CN(/C(=N\C#N)Nc2cccc(OC(F)F)c2)N=C1c1ccc(Cl)c(C)c1 (mixture of isomers) [Example 37, N-[3-(4-Chloro-3-methylphenyl)-1-{N′-cyano-N-[3-(difluoromethoxy)phenyl]carbamimidoyl}-4,5-dihydro-1H-pyrazol-4-yl]-N-ethyl-D-prolinamide] | 18.7 nM |
| CCN(C(=O)[C@@H]1CCCC[C@@H]1N)C1CN(/C(=N\C#N)Nc2cccc(OC(F)F)c2)N=C1c1ccc(Cl)c(Cl)c1 (mixture of isomers) [Example 43, (1R,2S)-2-amino-N-[1-{N′-cyano-N-[3-(difluoromethoxy)phenyl]carbamimidoyl}-3-(3,4-dichlorophenyl)-4,5-dihydro-1H-pyrazol-4-yl]-N-ethylcyclohexanecarboxamide] | 432 nM |
| CCN(C(=O)[C@@H]1CCC[C@@H]1N)C1CN(/C(=N\C#N)Nc2cc(OC)cc(C(F)(F)F)c2)N=C1c1ccc(Cl)c(Cl)c1 (mixture of isomers) [Example 45, (1R,2S)-2-Amino-N-[1-{N′-cyano-N-[3-methoxy-5-(trifluoromethyl)phenyl]carbamimidoyl}-3-(3,4-dichlorophenyl)-4,5-dihydro-1H-pyrazol-4-yl]-N-ethylcyclopentanecarboxamide] | 239 nM |
| N#C/N=C(/Nc1cccc(OC(F)F)c1)N1CC(NC(=O)C(N)(C2CC2)C2CC2)C(c2ccc(Cl)c(Cl)c2)=N1 (racemic) [Example 8, rac-2-Amino-N-[1-{N′-cyano-N-[3-(difluoromethoxy)phenyl]carbamimidoyl}-3-(3,4-dichlorophenyl)-4,5-dihydro-1H-pyrazol-4-yl]-2,2-dicyclopropylacetamide] | 513 nM |
| N#C/N=C(/Nc1cccc(OC(F)F)c1)N1CC(NC(=O)C2(N)CCC2)C(c2ccc(Cl)c(Cl)c2)=N1 (racemic) [Example 9, rac-1-Amino-N-[1-{N′-cyano-N-[3-(difluoromethoxy)phenyl]carbamimidoyl}-3-(3,4-dichlorophenyl)-4,5-dihydro-1H-pyrazol-4-yl]cyclobutanecarboxamide] | 603 nM |
| N#C/N=C(/Nc1cccc(OC(F)F)c1)N1CC(NC(=O)C2(N)CCCC2)C(c2ccc(Cl)c(Cl)c2)=N1 (racemic) [Example 10, rac-1-Amino-N-[1-{N′-cyano-N-[3-(difluoromethoxy)phenyl]carbamimidoyl}-3-(3,4-dichlorophenyl)-4,5-dihydro-1H-pyrazol-4-yl]cyclopentanecarboxamide] | 748 nM |
| N#C/N=C(/Nc1cccc(OC(F)F)c1)N1CC(NC(=O)C2(N)CCCCC2)C(c2ccc(Cl)c(Cl)c2)=N1 (racemic) [Example 11, rac-1-Amino-N-[1-{N′-cyano-N-[3-(difluoromethoxy)phenyl]carbamimidoyl}-3-(3,4-dichlorophenyl)-4,5-dihydro-1H-pyrazol-4-yl]cyclohexanecarboxamide] | 1330 nM |
| CCN(C(=O)[C@H]1C[C@@H](F)CN1)C1CN(/C(=N\C#N)Nc2cc(F)cc(OC(F)(F)F)c2)N=C1c1ccc(Cl)c(Cl)c1 (mixture of isomers) [Example 25, (4R)-N-[1-{N′-Cyano-N-[3-fluoro-5-(trifluoromethoxy)phenyl]carbamimidayl}-3-(3,4-dichlorophenyl)-4,5-dihydro-1H-pyrazol-4-yl]-N-ethyl-4-fluoro-D-prolinamide] | 519 nM |
| CCN(C(=O)[C@@H]1CCC[C@@H]1N)C1CN(/C(=N\C#N)Nc2cccc(OC(F)F)c2)N=C1c1ccc(Cl)c(Cl)c1 (relative stereo) [Example 42, Rel-(1R,2S)-2-amino-N-[1-{N′-cyano-N-[3-(difluoromethoxy)phenyl]carbamimidoyl}-3-(3,4-dichlorophenyl)-4,5-dihydro-1H-pyrazol-4-yl]-N-ethylcyclopentanecarboxamide] | 194 nM |
| CCN(C(=O)[C@H]1CCCN1)C1CN(/C(=N\C#N)Nc2cccc(OC(F)F)c2)N=C1c1ccc(Cl)c(Cl)c1 (single isomer, unassigned) [Example 1.2, N-[1-{N′-Cyano-N-[3-(difluoromethoxy)phenyl]carbamimidoyl}-3-(3,4-dichlorphenyl)-4,5-dihydro-1H-pyrazol-4-yl]-N-ethyl-D-prolinamide] | 362 nM |
| CCN(C(=O)[C@H]1C[C@@H](O)CN1)C1CN(/C(=N\C#N)Nc2cccc(OC(F)F)c2)N=C1c1ccc(Cl)c(Cl)c1 (single isomer, unassigned) [Example 3.2] | 2240 nM |
| CCN(C(=O)[C@H]1C[C@@H](F)CN1)C1CN(/C(=N\C#N)Nc2cccc(OC(F)F)c2)N=C1c1ccc(Cl)c(Cl)c1 (single isomer, unassigned) [Example 4.1] | 39.9 nM |
| CCN(C(=O)[C@H]1C[C@@H](F)CN1)C1CN(/C(=N\C#N)Nc2cccc(OC(F)F)c2)N=C1c1ccc(Cl)c(Cl)c1 (single isomer, unassigned) [Example 4.2] | 663 nM |
| CCN(C(=O)c1cccc(=O)[nH]1)C1CN(/C(=N\C#N)Nc2cccc(OC(F)F)c2)N=C1c1ccc(Cl)c(Cl)c1 (single isomer, unassigned) [Example 5.1, N-[1-{N′-Cyrano-N-[3-(difluoromethoxy)phenyl]carbamimidoyl}-3-(3,4-dichlorophenyl)-4,5-dihydro-1H-pyrazol-1-yl]-N-ethyl-6-oxo-1,6-dihydropyridine-2-carboxamide] | 576 nM |
| CCN(C(=O)c1cccc(=O)[nH]1)C1CN(/C(=N\C#N)Nc2cccc(OC(F)F)c2)N=C1c1ccc(Cl)c(Cl)c1 (single isomer, unassigned) [Example 5.2, N-[1-{N′-Cyano-N-[3-(difluoromethoxy)phenyl]carbamimidoyl}-3-(3,4-dichlorophenyl)-4,5-dihydro-1H-pyrazol-4-yl]-N-ethyl-6-oxo-1,6-dihydropyridine-2-carboxamide] | > 20000 nM |
| C[C@]1(C(=O)NC2CN(/C(=N\C#N)Nc3cccc(OC(F)F)c3)N=C2c2ccc(Cl)c(Cl)c2)CCCN1 (single isomer, unassigned) [Example 6.1, N-[1-{N′-Cyano-N-[3-(difluoromethoxy)phenyl]carbamimidoyl}-3-(3,4-dichlorophenyl)-4,5-dihydro-1H-pyrazol-1-yl]-2-methyl-D-prolinamide] | 12 nM |
| C[C@]1(C(=O)NC2CN(/C(=N\C#N)Nc3cccc(OC(F)F)c3)N=C2c2ccc(Cl)c(Cl)c2)CCCN1 (single isomer, unassigned) [Example 6.2, N-[1-{N′-Cyano-N-[3-(difluoromethoxy)phenyl]carbamimidoyl}-3-(3,4-dichlorophenyl)-4,5-dihydro-1H-pyrazol-4-yl]-2-methyl-D-prolinamide] | 237 nM |
